Experimental data: patent publication US12590118B2, “Salt and crystal form of steroid derivative regulator” (Shanghai Hansoh Biomedical Co., Ltd., priority 2019, dated 2026)

Columns and labels:
ICR mice = assay: Forced swimming model in mice; type: in vivo; details: for Mean (immobility, %): floating time/240 s; for Mean (immobility, s): latter four minutes of 6 min swim; for immobility time during the latter four minutes compared with that of the model group: forced swimming, ICR mice
Description: The antidepressant effect of the compound was evaluated by the forced swimming model in mice.
Compounds of Examples 1 to 3, Example 9, Example 40, Example 41, Examples 48 to 52, Example 90 and Example 98 of the present invention, prepared by the applicant.
Male ICR mice (25-35 g) were adapted in the experiment environment for 3 days before the forced swimming test.
According to the experiment design, the mice were randomly grouped on the day before the experiment according to body weight, with 12 mice in each group. Before the test, the compounds of each example were administered intragastrically according to the Tmax thereof in the brain in mice pharmacokinetic experiment.
Respectively: • 1) Model group (0.5% CMC-Na-1% Tween 80 solution, p.o., 10 mL/kg); • 2) Compounds of Examples 1 to 3, Example 40, Example 41, Examples 48 to 51, Example 90 and Example 98 (10 mg/kg, p.o., 10 mL/kg); Example 9 and Example 52 (5 mg/kg, p.o., 5 mL/kg).
When being administered, the compounds of each example were suspended in 0.5% CMC-Na+1% Tween 80 solution to the desired concentration.
0.5-1 hour after administration, ICR mice were placed in a forced swimming device (transparent glass drum (water depth 18 cm, water temperature 25-26° C.), one mouse per tank) and forced to swim for 6 minutes. The forced swimming device recorded the floating time of the ICR mice during the entire 6 minutes, and the data of the latter four minutes were used for data analysis. The mice were taken out immediately after the swimming experiment, wiped dry and put back in their original cages.
Note: The criterion for determining the immobility time is that the mouse stops struggling in water and floats, and there are only slight limb movements to keep the head floating on the water.
3.4 Data Analysis Floating time percentage=100*floating time/240 s.

GABA-A receptor = assay: 35S-TBPS binding assay (GABAA receptor binding ability assay); parameters: species or system Sprague-Dawley rat; details: rat cerebral cortex cell membrane, 5 μM GABA, 2 nM 35S-TBPS; read-out: IC50 on inhibiting the TBPS binding activity, 35S-TBPS bindng assay
Description: 1. The cerebral cortex of male Sprague-Dawley rat was isolated.
2. A pre-chilled 0.32 M sucrose solution (one tablet of protease inhibitor was added per 100 mL) was added to the cerebral cortex (the volume of sucrose solution was 10 times the volume of the cerebral cortex). The mixture was crushed with a 50 mL glass tissue homogenizer in batches and mixed well.
3. The mixture was centrifuged at 1,500 g, 4° C. for 10 minutes, and the supernatant was collected.
4. The mixture was centrifuged at 20,000 g, 4° C. for 30 minutes, and the supernatant was discarded.
5. The precipitate was resuspended with the pre-chilled phosphate buffer saline (PBS) (one tablet of protease inhibitor was added per 100 mL). An average of 4 mL of PBS was added per rat, and the mixture was mixed well with a glass tissue homogenizer.
6. The mixture was centrifuged at 10,000 g, 4° C. for 10 minutes, and the supernatant was discarded.
7. Steps 5 and 6 were repeated three times.
8. Finally, the precipitate was resuspended with 4 volumes of PBS. The resulting solution was dispensed, frozen in liquid nitrogen, and stored at −80° C.
9. The protein concentration was measured by the bicinchoninic acid (BCA) method.
1. 230 μL of PBS was added to each well of a well plate with 1.1 mL volume.
2. 60 μL of the cerebral cortex cell membrane (5 μg/μL) solution was added to each well, and the mixture was mixed well.
3. The test compound (3 μL per well) was added, and the plate was incubated at 25° C. for 5 minutes. The DMSO concentration was 1%. The initial compound concentration was […], and a
3-fold dilution in gradient was carried out to obtain a total of 8 gradients and 2 replicates. 1% DMSO was used as a negative control, and 10 μM P026-2 was used as a positive control.
4. GABA was added at a final concentration of 5 μM, and incubated at 25° C. for 5 minutes. 1 mM GABA solution was formulated, and 1.5 μL of the solution was added to each well.
5. 35S-TBPS was added at a final concentration of 2 nM. The concentration of isotope mother solution was 9.7 μM. After dilution with PBS for 100 times, 6 μL of the diluted isotope solution was added to each well.
6. The plate was incubated at 4° C. for 20 hours.
7. The FilterMate GF/C plate was pre-treated with 0.5% PEI, and incubated at 4° C. for 1 hour.
8. The FilterMate GF/C plate was washed with Universal Harvester twice, 50 mL PBS each time.
9. The reaction solution was transferred to the GF/C plate, and each well was washed 4 times with 900 μL of PBS.
10. The washed GF/C plate was placed at 55° C. and dried for 10 minutes.
11. 40 μL of scintillation solution was added to each well, and the CPM value was read with TopCount.
In the experiment, the CPM (counts per minute) value was read with TopCount. According to the readings of the High control (DMSO) and the Low control (10 μM of the positive compound) experimental groups, the % inhibition was calculated based on the following formula: % Inhibition=100×(CPMHigh control−CPMsample)/(CPMHigh control−CPMLow control)
The IC50 of the compound was calculated according to the following 4-parameter nonlinear logic formula: Y=Bottom+(Top−Bottom)/(1+10^((Log IC50−X)*HillSlope)),
wherein: • X represents the log of compound concentration, • Y represents the % Inhibition.
The effect of the compound of the present invention on the TBPS binding activity was determined by the above test, and the measured IC50 values are shown in Table 5.

[1] = target: T1, human GABAA receptor α1, β2 and γ2 subunit (HEK293T cell line) (Homo sapiens, UniProt P14867+P47870); assay: Positive regulatory effect on GABAA receptor, manual patch clamp; type: cell-based; details: whole-cell current, 1 μM GABA
T1 construct: expressed in transfected cells
T1 sequence (P14867 28-456): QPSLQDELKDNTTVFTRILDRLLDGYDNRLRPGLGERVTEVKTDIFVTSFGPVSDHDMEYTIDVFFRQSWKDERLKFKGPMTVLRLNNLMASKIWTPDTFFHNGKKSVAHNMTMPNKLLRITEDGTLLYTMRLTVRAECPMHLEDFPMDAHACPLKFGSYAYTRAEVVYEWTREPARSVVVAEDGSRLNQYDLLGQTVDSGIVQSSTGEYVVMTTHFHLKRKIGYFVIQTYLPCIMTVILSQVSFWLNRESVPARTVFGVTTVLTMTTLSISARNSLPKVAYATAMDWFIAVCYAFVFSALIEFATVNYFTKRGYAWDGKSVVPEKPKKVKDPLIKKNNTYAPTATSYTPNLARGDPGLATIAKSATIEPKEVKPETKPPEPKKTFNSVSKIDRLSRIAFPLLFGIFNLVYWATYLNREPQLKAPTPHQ
T1 sequence (P47870 25-512 limits assumed): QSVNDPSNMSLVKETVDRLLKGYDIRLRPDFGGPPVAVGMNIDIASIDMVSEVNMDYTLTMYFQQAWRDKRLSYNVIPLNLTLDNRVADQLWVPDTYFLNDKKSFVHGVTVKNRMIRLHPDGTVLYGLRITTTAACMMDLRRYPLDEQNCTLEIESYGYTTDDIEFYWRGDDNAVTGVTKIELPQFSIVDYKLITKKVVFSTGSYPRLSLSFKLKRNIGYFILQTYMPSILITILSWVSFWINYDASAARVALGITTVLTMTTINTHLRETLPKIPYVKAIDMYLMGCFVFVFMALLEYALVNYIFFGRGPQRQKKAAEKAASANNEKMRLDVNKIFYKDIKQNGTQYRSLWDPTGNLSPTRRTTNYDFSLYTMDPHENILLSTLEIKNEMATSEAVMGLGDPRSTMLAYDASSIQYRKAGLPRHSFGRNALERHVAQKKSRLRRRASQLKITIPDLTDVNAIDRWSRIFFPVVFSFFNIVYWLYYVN
T1 sequence (P18507 40-475 partner): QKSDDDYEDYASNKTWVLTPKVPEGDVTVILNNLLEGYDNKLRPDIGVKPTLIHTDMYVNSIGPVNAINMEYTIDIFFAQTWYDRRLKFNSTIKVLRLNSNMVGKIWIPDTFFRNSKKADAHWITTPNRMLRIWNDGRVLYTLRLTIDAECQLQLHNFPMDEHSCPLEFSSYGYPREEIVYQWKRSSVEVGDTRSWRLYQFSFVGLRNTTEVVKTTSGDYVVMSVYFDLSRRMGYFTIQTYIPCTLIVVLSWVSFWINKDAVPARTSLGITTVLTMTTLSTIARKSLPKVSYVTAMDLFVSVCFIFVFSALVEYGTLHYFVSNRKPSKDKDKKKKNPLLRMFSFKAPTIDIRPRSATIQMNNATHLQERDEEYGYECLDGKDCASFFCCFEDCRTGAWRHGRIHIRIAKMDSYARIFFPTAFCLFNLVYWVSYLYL
Description: The objective of this test example is to determine the positive regulatory effect of the compound on GABAA receptor by the electrophysiological manual patch clamp method.
Manual patch clamp system HEKA EPC10 USB signal amplifier and digital conversion system (purchased from HEKA Electronics, Germany), centrifuge (Eppendorf, etc.), carbon dioxide incubator (purchased from Thermo, etc.), biological safety cabinet (Thermo, etc.), pipette (purchased from Eppendorf, etc.).
The cells were grown in a culture dish with DMEM medium (purchased from Invitrogen), and cultured in an incubator at 37° C. and 5% CO2. Before the electrophysiological experiment, the cells were transferred to a round glass slide placed in the culture dish, and grown in the same culture medium and under the same culture condition as above. The density of cells on each round glass slide should meet the requirement that most cells were independent and individual.
Each test compound was diluted in gradient with DMSO to obtain a stock solution, which was then diluted with extracellular fluid by 1,000-fold to obtain the final test concentration. The final concentration of DMSO in the compound solution with each concentration was 0.1%. The experiment used the manual patch clamp system HEKA EPC10 USB signal amplifier and digital conversion system for whole cell current recording. The round glass slide with HEK293T GABAA cells grown on the surface was taken out of the culture dish, and placed in the electrophysiological recording tank under the inverted microscope. The recording tank was continuously perfused with extracellular fluid. During the experiment, the whole-cell current recording technology was used to record the chloride current of the GABAA channel. 1 μM GABA was used to activate the chloride current of the GABAA channel of each cell as an initial control. 1 μM GABA acted on the cell through the drug perfusion system to induce the chloride current of the GABAA channel, the action time was about 3 to 5 seconds, and the current value was used as the initial control value. The test concentration of compound was perfused and incubated for 2 to 5 minutes. […] GABA solution (mixed with the test concentration of compound) was given to the cells to observe the enhancement effect of the test compound on the current induced by 1 μM GABA. When the cell state was stable, the test compound acted on the same cell from low to high concentration to record the enhancement effect of the induced current.
The experimental data was analyzed by HEKA Patchmaster, Microsoft Excel and the data analysis software provided by Graphpad Prism.

C[C@@]1(O)CC[C@H]2[C@H](CC[C@@H]3[C@@H]2CC[C@@]2(C)[C@H]3[C@H](C3CC3)C[C@@H]2C(=O)Cn2ncnn2)C1 [Example 98, 1-((3R,5R,8R,9R,10S,13S,14S,15S,17S)-15-Cyclopropyl-3-hydroxy-3,13-dimethylhexadecahydro-1H-cyclopenta[a]phenanthren-17-yl)-2-(2H-tetrazol-2-yl)ethan-1-one]
Mean (immobility, %) (ICR mice; dose 5 mpk p.o.): 33.54% | Mean (immobility, s) (ICR mice; dose 5 mpk p.o.): 80.5 s | immobility time during the latter four minutes compared with that of the model group (ICR mice): very significantly different | IC50 (GABA-A receptor): 21.4 nM

C[C@@]1(O)CC[C@H]2[C@H](CC[C@@H]3[C@@H]2CC[C@@]2(C)[C@H]3[C@@H]3C[C@@H]3[C@@H]2C(=O)Cn2cc(C(F)(F)F)cn2)C1 [Example 3, 1-((2R,4aS,4bR,6aS,7S,7aS,8aR,8bR,8cR,10aR)-2-Hydroxy-2,6a-dimethyloctadecahydrocyclopropa[4,5]cyclopenta[1,2-a]phenanthren-7-yl)-2-(4-(trifluoromethyl)-1H-pyrazol-1-yl)ethan-1-one]
Mean (immobility, %) (ICR mice; dose 10 mpk p.o.): 59.93% | Mean (immobility, s) (ICR mice; dose 10 mpk p.o.): 143.81 s | IC50 (GABA-A receptor): 13.5 nM

C[C@@H]1C[C@H](C(=O)Cn2ccc(C(F)(F)F)n2)[C@@]2(C)CC[C@H]3[C@@H](CC[C@@H]4C[C@](C)(O)CC[C@@H]43)[C@H]12 [Example 86, 1-((3R,5R,8R,9R,10S,13S,14S,15R,17S)-3-Hydroxy-3,13,15-trimethylhexadecahydro-1H-cyclopenta[a]phenanthren-17-yl)-2-(3-(trifluoromethyl)-1H-pyrazol-1-yl)ethan-1-one]
EC50 [1]: 74 nM | IC50 (GABA-A receptor): 8 nM

C[C@@H]1C[C@H](C(=O)Cn2cc(C#N)c(Cl)n2)[C@@]2(C)CC[C@H]3[C@@H](CC[C@@H]4C[C@](C)(O)CC[C@@H]43)[C@H]12 [Example 88, 3-Chloro-1-(2-((3R,5R,8R,9R,10S,13S,14S,15R,17S)-3-hydroxy-3,13,15-trimethylhexadecahydro-1H-cyclopenta[a]phenanthren-17-yl)-2-oxoethyl)-1H-pyrazole-4-carbonitrile]
EC50 [1]: 49 nM | IC50 (GABA-A receptor): 6.7 nM

C[C@@]1(O)CC[C@H]2[C@H](CC[C@@H]3[C@@H]2CC[C@]2(C)C(C(=O)Cn4cc(C#N)cn4)C[C@@H](C4CC4)[C@@H]32)C1 (stereo partly drawn) [Example 48, 1-(2-((3R,5R,8R,9R,10S,13S,14S,15S)-15-Cyclopropyl-3-hydroxy-3,13-dimethylhexadecahydro-1H-cyclopenta[a]phenanthren-17-yl)-2-oxoethyl)-1H-pyrazole-4-carbonitrile]
Mean (immobility, %) (ICR mice; dose 10 mpk p.o.): 55.92% | Mean (immobility, s) (ICR mice; dose 10 mpk p.o.): 134.21 s | IC50 (GABA-A receptor): 7.5 nM

C[C@@]1(O)CC[C@H]2[C@H](CC[C@@H]3[C@@H]2CC[C@@]2(C)[C@H]3[C@H](C3CC3)C[C@@H]2C(=O)Cn2nc(C#N)cc2C#N)C1 [Example 96, 1-(2-((3R,5R,8R,9R,10S,13S,14S,15S,17S)-15-Cyclopropyl-3-hydroxy-3,13-dimethylhexadecahydro-1H-cyclopenta[a]phenanthren-17-yl)-2-oxoethyl)-1H-pyrazole-3,5-dicarbonitrile]
EC50 [1]: 84 nM | IC50 (GABA-A receptor): 28.5 nM

CC[C@@H]1C[C@H](C(=O)Cn2ccc(C#N)n2)[C@@]2(C)CC[C@H]3[C@@H](CC[C@@H]4C[C@](C)(O)CC[C@@H]43)[C@H]12 [Example 90, 1-(2-((3R,5R,8R,9R,10S,13S,14S,15R,17S)-15-Ethyl-3-hydroxy-3,13-dimethylhexadecahydro-1H-cyclopenta[a]phenanthren-17-yl)-2-oxoethyl)-1H-pyrazole-3-carbonitrile]
Mean (immobility, %) (ICR mice; dose 10 mpk p.o.): 36.92% | Mean (immobility, s) (ICR mice; dose 10 mpk p.o.): 88.61 s | immobility time during the latter four minutes compared with that of the model group (ICR mice): very significantly different | IC50 (GABA-A receptor): 16.2 nM

C[C@@]1(O)CC[C@H]2[C@H](CC[C@@H]3[C@@H]2CC[C@@]2(C)[C@H]3[C@@H]3C[C@@H]3[C@@H]2C(=O)Cn2cc(C#N)cn2)C1 [Example 1, 1-(2-((2R,4aS,4bR,6aS,7S,7aS,8aR,8bR,8cR,10aR)-2-hydroxy-2,6a-dimethyloctadecahydrocyclopropa[4,5]cyclopenta[1,2-a]phenanthren-7-yl)-2-oxoethyl)-1H-pyrazole-4-carbonitrile]
Mean (immobility, %) (ICR mice; dose 10 mpk p.o.): 54.26% | Mean (immobility, s) (ICR mice; dose 10 mpk p.o.): 130.22 s | IC50 (GABA-A receptor): 24.3 nM
